Measurements published in paper PMC7439413 (Science Advances, 2020).

What was measured:
[1] = tested on: GRwt LBD-ligand complex / TIF2 peptide; experiment: SPR: binding of GRwt-ligand complexes to immobilized TIF2 peptide; set-up: species or system human; settings: stated for both TIF2 and PRGC1
[2] = tested on: GRwt-ligand-PRGC1 complex; experiment: CPMG relaxation dispersion NMR, GRwt-ligand-PRGC1; set-up: species or system human; settings: GRwt-dex-PRGC1; 13C CPMG, 18.8 T, 298 K
[3] = tested on: GRF602S-ligand-TIF2 complex; experiment: CPMG relaxation dispersion NMR, GRF602S-ligand-TIF2; set-up: species or system human; settings: GRF602S-dex-TIF2; 13C CPMG, 14.1 and 18.8 T, 298 K
human GR = target: T1, human GR (Homo sapiens, UniProt P04150); experiment: GR reporter gene assay; type: cell-based; settings: transactivation reporter gene assay, comparison among steroid ligands
T1 sequence (P04150 1-777): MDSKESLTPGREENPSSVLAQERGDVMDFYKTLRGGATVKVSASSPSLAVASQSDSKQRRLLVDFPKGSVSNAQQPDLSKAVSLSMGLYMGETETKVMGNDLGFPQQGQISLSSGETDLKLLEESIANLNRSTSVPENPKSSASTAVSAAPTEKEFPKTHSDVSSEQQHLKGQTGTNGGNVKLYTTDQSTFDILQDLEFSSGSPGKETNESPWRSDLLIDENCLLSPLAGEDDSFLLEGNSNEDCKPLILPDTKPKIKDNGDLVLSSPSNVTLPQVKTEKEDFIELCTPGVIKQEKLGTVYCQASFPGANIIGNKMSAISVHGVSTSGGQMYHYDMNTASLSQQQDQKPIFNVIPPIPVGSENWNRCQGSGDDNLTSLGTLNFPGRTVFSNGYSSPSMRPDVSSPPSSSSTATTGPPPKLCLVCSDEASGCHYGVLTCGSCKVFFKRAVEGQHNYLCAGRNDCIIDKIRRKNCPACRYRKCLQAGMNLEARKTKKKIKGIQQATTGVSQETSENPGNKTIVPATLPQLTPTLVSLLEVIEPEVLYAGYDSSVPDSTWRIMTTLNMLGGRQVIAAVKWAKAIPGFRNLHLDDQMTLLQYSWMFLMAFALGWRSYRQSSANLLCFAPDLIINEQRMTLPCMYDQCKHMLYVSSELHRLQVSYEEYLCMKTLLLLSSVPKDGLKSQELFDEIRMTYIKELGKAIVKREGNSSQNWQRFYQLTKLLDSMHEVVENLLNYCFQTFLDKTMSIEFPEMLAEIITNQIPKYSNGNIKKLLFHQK

GRwt-ligand-TIF2 complex = experiment: CPMG relaxation dispersion NMR, GRwt-ligand-TIF2; set-up: species or system human; settings: M752 13C CPMG, semiquantitative interpretation, 298 K
[4] = target: GRwt LBD-ligand complex / PRGC1 peptide (Homo sapiens, UniProt P04150); experiment: SPR: binding of GRwt-ligand complexes to immobilized PRGC1 peptide; settings: both GR constructs (GRwt and GRF602S), irrespective of ligand

C[C@]12CCC(=O)C=C1CC[C@@H]1[C@@H]2[C@@H](O)C[C@@]2(C)[C@H]1CC[C@]2(O)C(=O)CO [cortisol]
coregulator-binding affinity rank of GRwt-ligand complex in words [1]: weakest affinity in both cases

C[C@@H]1C[C@H]2[C@@H]3CCC4=CC(=O)C=C[C@]4(C)[C@@]3(F)[C@@H](O)C[C@]2(C)[C@@]1(O)C(=O)CO [dex, dexamethasone]
M565 relaxation dispersion in words [2]: does not show any dispersion
M565 relaxation dispersion in words [3]: shows relaxation dispersion in the GRF602S-dex-TIF2 complex, albeit of much lower amplitude
M752 relaxation dispersion in words [3]: marked relaxation dispersion profile

C[C@]12C=CC(=O)C=C1CC[C@@H]1[C@@H]2[C@@H](O)C[C@@]2(C)[C@H]1C[C@H]1O[C@@H](C3CCCCC3)O[C@]12C(=O)CO [dibC, desisobutyryl-ciclesonide]
coregulator-binding affinity rank of GRwt-ligand complex in words [1]: highest affinity for coregulator peptides
Agonist potency/efficacy in words (human GR): partial agonist, dibC binds GR with high potency
population ratio of helix 12 conformations, pm/pM (GRwt-ligand-TIF2 complex): 0.1

PPQEAEEPSLLKKLLLAPANT [PRGC1]
affinity of GR constructs for coregulator in words [4]: higher affinity for PRGC1 than for TIF2
